In the experiment the target is T1, ΔF508-CFTR (Homo sapiens, UniProt P13569, DEL508-508).
T1 construct: expressed in transfected cells; host or cells: NIH3T3 mouse fibroblasts stably expressing ΔF508-CFTR for the optical, whole-cell and single-channel assays; Fisher rat epithelial (FRT) cells for Ussing chamber follow-up
As to the kind of experiment: Assays for ΔF508-CFTR correction and potentiator properties (membrane potential optical and electrophysiological methods). To be noted: CFTR modulation; for % Activity: % Efficacy; for EC50: tested using the above methods. Format: cell-based. The text has this: Assays for Detecting and Measuring ΔF508-CFTR Correction and Potentiator Properties of Compounds
A) Membrane Potential Optical Methods for Assaying ΔF508-CFTR Modulation Properties of Compounds
The optical membrane potential assay utilized voltage-sensitive FRET sensors described by Gonzalez and Tsien (See, Gonzales, J. E. and R. Y. Tsien (1995) “Voltage sensing by fluorescence resonance energy transfer in single cells” Biophys J 69 (4): 1272-80, and Gonzalez, J. E. and R. Y. Tsien (1997) “Improved indicators of cell membrane potential that use fluorescence resonance energy transfer” Chem Biol 4 (4): 269-77) in combination with instrumentation for measuring fluorescence changes such as the Voltage/Ion Probe Reader (VIPR) (See, Gonzalez, J. E., K. Oades, et al. (1999) “Cell-based assays and instrumentation for screening ion-channel targets” Drug Discov Today 4 (9): 431-439).
These voltage sensitive assays are based on the change in fluorescence resonant energy transfer (FRET) between the membrane-soluble, voltage-sensitive dye, DiSBAC2 (3), and a fluorescent phospholipid, CC2-DMPE, which is attached to the outer leaflet of the plasma membrane and acts as a FRET donor. Changes in membrane potential (Vm) cause the negatively charged DiSBAC2(3) to redistribute across the plasma membrane and the amount of energy transfer from CC2-DMPE changes accordingly. The changes in fluorescence emission were monitored using VIPR™ II, which is an integrated liquid handler and fluorescent detector designed to conduct cell-based screens in 96- or 384-well microtiter plates.
To identify small molecules that correct the trafficking defect associated with ΔF508-CFTR; a single-addition HTS assay format was developed. The cells were incubated in serum-free medium for 16 hrs at 37° C. in the presence or absence (negative control) of test compound. As a positive control, cells plated in 384-well plates were incubated for 16 hrs at 27° C. to “temperature-correct” ΔF508-CFTR. The cells were subsequently rinsed 3× with Krebs Ringers solution and loaded with the voltage-sensitive dyes. To activate ΔF508-CFTR, […] and the CFTR potentiator, genistein ([…]), were added along with Cl^−-free medium to each well. The addition of Cl^−-free medium promoted Cl^− efflux in response to ΔF508-CFTR activation and the resulting membrane depolarization was optically monitored using the FRET-based voltage-sensor dyes.
To identify potentiators of ΔF508-CFTR, a double-addition HTS assay format was developed. During the first addition, a Cl^−-free medium with or without test compound was added to each well. After 22 sec, a second addition of Cl^−-free medium containing 2-10 µM forskolin was added to activate ΔF508-CFTR. The extracellular Cl^− concentration following both additions was 28 mM, which promoted Cl^− efflux in response to ΔF508-CFTR activation and the resulting membrane depolarization was optically monitored using the FRET-based voltage-sensor dyes.
• Bath Solution #1: (in mM) NaCl 160, KCl 4.5, CaCl2 2, MgCl2 1, HEPES 10, pH 7.4 with NaOH. • Chloride-free bath solution: Chloride salts in Bath Solution #1 are substituted with gluconate salts. • CC2-DMPE: Prepared as a 10 mM stock solution in DMSO and stored at −20° C. • DiSBAC2(3): Prepared as a 10 mM stock in DMSO and stored at −20° C. Cell Culture
NIH3T3 mouse fibroblasts stably expressing ΔF508-CFTR are used for optical measurements of membrane potential. The cells are maintained at 37° C. in 5% CO2 and 90% humidity in Dulbecco's modified Eagle's medium supplemented with 2 mM glutamine, 10% fetal bovine serum, 1×NEAA, β-ME, 1×pen/strep, and 25 mM HEPES in 175 cm^2 culture flasks. For all optical assays, the cells were seeded at 30,000/well in 384-well matrigel-coated plates and cultured for 2 hrs at 37° C. before culturing at 27° C. for 24 hrs. for the potentiator assay. For the correction assays, the cells are cultured at 27° C. or 37° C. with and without compounds for 16-24 hours.

Each structure is given as a SMILES string.

T1 sequence (P13569 with tags, fused parts or gaps DEL508-508): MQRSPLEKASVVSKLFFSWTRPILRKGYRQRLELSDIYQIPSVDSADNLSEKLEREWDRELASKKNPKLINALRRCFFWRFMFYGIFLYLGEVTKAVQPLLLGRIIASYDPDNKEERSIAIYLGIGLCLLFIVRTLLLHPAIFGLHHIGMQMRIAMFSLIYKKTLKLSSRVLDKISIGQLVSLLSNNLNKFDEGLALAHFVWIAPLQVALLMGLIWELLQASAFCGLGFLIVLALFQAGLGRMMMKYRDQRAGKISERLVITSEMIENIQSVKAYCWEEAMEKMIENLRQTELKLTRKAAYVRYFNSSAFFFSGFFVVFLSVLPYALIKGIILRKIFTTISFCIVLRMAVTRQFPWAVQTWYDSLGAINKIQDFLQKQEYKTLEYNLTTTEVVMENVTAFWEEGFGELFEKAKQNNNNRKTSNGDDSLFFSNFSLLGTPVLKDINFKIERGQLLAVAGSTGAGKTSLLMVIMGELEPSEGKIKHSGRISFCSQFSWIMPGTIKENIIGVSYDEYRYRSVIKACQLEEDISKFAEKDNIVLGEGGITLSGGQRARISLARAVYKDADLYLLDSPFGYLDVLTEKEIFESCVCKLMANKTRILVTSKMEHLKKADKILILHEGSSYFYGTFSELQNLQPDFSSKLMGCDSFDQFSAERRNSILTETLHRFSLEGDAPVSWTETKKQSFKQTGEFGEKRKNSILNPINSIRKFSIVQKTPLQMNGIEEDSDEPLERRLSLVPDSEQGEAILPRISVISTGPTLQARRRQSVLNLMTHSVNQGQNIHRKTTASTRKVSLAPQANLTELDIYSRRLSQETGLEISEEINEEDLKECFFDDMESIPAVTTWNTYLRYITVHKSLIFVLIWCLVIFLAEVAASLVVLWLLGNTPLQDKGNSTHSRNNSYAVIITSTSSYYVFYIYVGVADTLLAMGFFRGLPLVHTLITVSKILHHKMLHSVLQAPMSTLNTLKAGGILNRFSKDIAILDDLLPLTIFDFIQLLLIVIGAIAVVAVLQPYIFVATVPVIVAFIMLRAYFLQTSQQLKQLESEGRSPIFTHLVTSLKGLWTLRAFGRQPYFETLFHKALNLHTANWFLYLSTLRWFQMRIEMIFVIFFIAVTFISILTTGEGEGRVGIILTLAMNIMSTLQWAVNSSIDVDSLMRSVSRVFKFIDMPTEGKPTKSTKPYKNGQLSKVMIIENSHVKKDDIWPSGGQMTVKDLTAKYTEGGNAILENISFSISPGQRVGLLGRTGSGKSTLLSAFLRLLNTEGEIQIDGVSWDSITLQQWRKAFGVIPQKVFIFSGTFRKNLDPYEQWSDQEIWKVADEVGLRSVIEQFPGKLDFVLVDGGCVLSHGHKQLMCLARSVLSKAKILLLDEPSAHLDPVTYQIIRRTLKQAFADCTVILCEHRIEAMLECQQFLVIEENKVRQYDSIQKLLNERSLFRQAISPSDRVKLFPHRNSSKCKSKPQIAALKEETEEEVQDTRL

For orientation: EC50 means the concentration that produces a half-maximal response. For `CCOc1ccc2nc(NC(=O)C3CCCCC3)sc2c1` [compound 1], the “% Activity” value was “++ (“++” means between 25% to 100%)” and the EC50 is 10 to 25 µM.

As for `Cc1ccc(-c2csc(NC(=O)c3ccccc3)n2)c(C)c1` [compound 2], the “% Activity” value is “+++ (“+++” means >100%)” and the EC50 is below 10 µM.

`CCCCC(=O)Nc1nc(-c2cc(C)ccc2C)cs1` [compound 3]: the “% Activity” value was “++ (“++” means between 25% to 100%)” and the half-maximal effective concentration (EC50) lay in the range of 10 to 25 µM.

For `COc1ccccc1-c1csc(NC(=O)c2ccc(C)cc2)n1` [compound 4], the “% Activity” value is “++ (“++” means between 25% to 100%)” and the EC50 is below 10 µM.

As to `COc1ccccc1-c1csc(NC(=O)c2cccc(C)c2)n1` [compound 5], the “% Activity” value was “++ (“++” means between 25% to 100%)” and the EC50 lay within 10 to 25 µM.

As to `COc1ccc(C(=O)Nc2nc(-c3ccccc3OC)cs2)cc1` [compound 6], the “% Activity” value was “++ (“++” means between 25% to 100%)” and the half-maximal effective concentration (EC50) was 10 to 25 µM.

As for `COc1cccc(C(=O)Nc2nc(-c3ccccc3OC)cs2)c1` [compound 7], the “% Activity” value is “+++ (“+++” means >100%)” and the concentration for a half-maximal effect (EC50) lay within 10 to 25 µM.

`O=C(Nc1nc2c(s1)CCCC2)c1cccc(Br)c1` [compound 8]: the “% Activity” value is “+++ (“+++” means >100%)” and the EC50 is below 10 µM.

Turning to `O=C(Nc1nc(-c2cccs2)cs1)c1cccc(Br)c1` [compound 9], the “% Activity” value was “++ (“++” means between 25% to 100%)” and the EC50 is below 10 µM.

For the molecule `CCc1ccc(C(=O)Nc2nc3ccccc3s2)cc1` [compound 10], the “% Activity” value was “+++ (“+++” means >100%)” and the concentration for a half-maximal effect (EC50) lay in the range of 10 to 25 µM.

As for `CCCc1ccc(C(=O)Nc2nc3ccccc3s2)cc1` [compound 11], the “% Activity” value was “+++ (“+++” means >100%)” and the EC50 lay in the range of 10 to 25 µM.

`CCCCc1ccc(C(=O)Nc2nc3ccccc3s2)cc1` [compound 12]: the “% Activity” value is on record as “+++ (“+++” means >100%)” and the EC50 was below 10 µM.

In the case of `COc1ccc(-c2ccc(C(=O)Nc3nccs3)cc2)cc1` [compound 13], the “% Activity” value is recorded as “++ (“++” means between 25% to 100%)” and the 50% effective concentration (EC50) is below 10 µM.

For `COc1ccc(-c2ccc(C(=O)Nc3nc4ccccc4s3)cc2)cc1` [compound 14], the “% Activity” value is on record as “++ (“++” means between 25% to 100%)” and the 50% effective concentration (EC50) was below 10 µM.

Take `COc1ccc(-c2ccc(C(=O)Nc3nc4ccc(OC)cc4s3)cc2)cc1` [compound 15]: the “% Activity” value is on record as “++ (“++” means between 25% to 100%)” and the EC50 was below 10 µM.

As for `CCCCc1ccc(C(=O)Nc2nccs2)cc1` [compound 16], the “% Activity” value is “+++ (“+++” means >100%)” and the EC50 was below 10 µM.

Take `O=C(Nc1nc(-c2ccccc2)cs1)C12CC3CC(CC(C3)C1)C2` [compound 17]: the “% Activity” value is “++ (“++” means between 25% to 100%)” and the EC50 is below 10 µM.

As to `O=C(Nc1ncc(-c2ccccc2)s1)c1ccccc1` [compound 18], the “% Activity” value is reported as “++ (“++” means between 25% to 100%)” and the concentration giving a half-maximal response (EC50) lay in the range of 10 to 25 µM.

As for `O=C(Nc1ncc(Cc2ccccc2Cl)s1)c1ccccc1Cl` [compound 19], the “% Activity” value is “++ (“++” means between 25% to 100%)” and the concentration giving a half-maximal response (EC50) was 10 to 25 µM.

For the molecule `O=C(O)CSCC(=O)Nc1nc(-c2ccccc2)c(-c2ccccc2)s1` [compound 20], the “% Activity” value is listed as “++ (“++” means between 25% to 100%)” and the half-maximal effective concentration (EC50) lay in the range of 10 to 25 µM.

With `O=C(Nc1nc(-c2ccccc2)cs1)c1ccccc1` [compound 21], the “% Activity” value is “++ (“++” means between 25% to 100%)” and the EC50 was 10 to 25 µM.

As to `O=C(Nc1ncc(Cc2cccc(Cl)c2Cl)s1)C1CC1` [compound 22], the “% Activity” value is on record as “++ (“++” means between 25% to 100%)” and the EC50 is 10 to 25 µM.

For `O=C(Nc1ncc(Cc2cccc(Cl)c2)s1)c1ccccc1` [compound 23], the “% Activity” value is recorded as “++ (“++” means between 25% to 100%)” and the concentration giving a half-maximal response (EC50) was below 10 µM.

Take `CCC(C(=O)Nc1nc2ccc(C)cc2s1)c1ccccc1` (centres unmarked) [compound 24]: the “% Activity” value is recorded as “+++ (“+++” means >100%)” and the EC50 lay in the range of 10 to 25 µM.

In the case of `O=C(Nc1ncc(Cc2ccccc2)s1)C(c1ccccc1)c1ccccc1` [compound 25], the “% Activity” value is recorded as “++ (“++” means between 25% to 100%)” and the EC50 was below 10 µM.

Take `O=C(Nc1ncc(Cc2ccccc2Cl)s1)c1cccc2ccccc12` [compound 26]: the “% Activity” value is on record as “++ (“++” means between 25% to 100%)” and the half-maximal effective concentration (EC50) is 10 to 25 µM.

Take `COc1ccc(Cc2cnc(NC(=O)C(c3ccccc3)c3ccccc3)s2)cc1` [compound 27]: the “% Activity” value is reported as “++ (“++” means between 25% to 100%)” and the half-maximal effective concentration (EC50) was below 10 µM.

In the case of `O=C(Nc1ncc(Cc2ccccc2Cl)s1)c1ccccc1` [compound 28], the “% Activity” value was “++ (“++” means between 25% to 100%)” and the concentration giving a half-maximal response (EC50) fell in the range of 10 to 25 µM.

On to `O=C(Nc1ncc(Cc2ccccc2Cl)s1)C1CCCCC1` [compound 29], for which the “% Activity” value is recorded as “++ (“++” means between 25% to 100%)” and the EC50 was below 10 µM.

Consider `O=C(Nc1ncc(Cc2cc(Cl)ccc2Cl)s1)C1CCCCC1` [compound 30], for which the “% Activity” value is “+++ (“+++” means >100%)” and the 50% effective concentration (EC50) is below 10 µM.

Consider `O=C(Cc1ccccc1)Nc1ncc(Cc2cccc(Cl)c2)s1` [compound 31], for which the “% Activity” value was “++ (“++” means between 25% to 100%)” and the EC50 was below 10 µM.

On to `O=C(Cc1ccccc1)Nc1ncc(Cc2ccccc2)s1` [compound 32], for which the “% Activity” value was “++ (“++” means between 25% to 100%)” and the EC50 was 10 to 25 µM.

As for `O=C(Nc1ncc(Cc2ccc(Cl)cc2)s1)c1ccccc1Cl` [compound 33], the “% Activity” value is “++ (“++” means between 25% to 100%)” and the 50% effective concentration (EC50) fell in the range of 10 to 25 µM.

As to `CC(C)C(C(=O)Nc1nc(-c2ccncc2)cs1)c1ccc(F)cc1F` (centres unmarked) [compound 34], the “% Activity” value is “++ (“++” means between 25% to 100%)” and the 50% effective concentration (EC50) fell in the range of 10 to 25 µM.

Turning to `CC(C)C(C(=O)Nc1nc(-c2ccncc2)cs1)c1ccccc1` (centres unmarked) [compound 35], the “% Activity” value is reported as “++ (“++” means between 25% to 100%)” and the 50% effective concentration (EC50) lay in the range of 10 to 25 µM.

On to `N#CCC(=O)Nc1ncc(Cc2cccc(Cl)c2)s1` [compound 36], for which the “% Activity” value is “++ (“++” means between 25% to 100%)” and the EC50 was 10 to 25 µM.

Regarding `O=C(Nc1ncc(Cc2ccccc2Cl)s1)C(c1ccccc1)c1ccccc1` [compound 37], the “% Activity” value was “+++ (“+++” means >100%)” and the half-maximal effective concentration (EC50) is below 10 µM.

Take `O=C(Nc1ncc(Cc2ccc(Cl)cc2)s1)C(c1ccccc1)c1ccccc1` [compound 38]: the “% Activity” value was “++ (“++” means between 25% to 100%)” and the half-maximal effective concentration (EC50) is below 10 µM.

`Cc1ccc(C(=O)Nc2nc(-c3ccc(C)cc3)c(-c3ccccc3)s2)cc1` [compound 39]: the “% Activity” value was “+++ (“+++” means >100%)” and the EC50 is below 10 µM.

Regarding `Cc1ccccc1C(=O)Nc1nc2c(C)cccc2s1` [compound 40], the “% Activity” value is given as “++ (“++” means between 25% to 100%)” and the EC50 was below 10 µM.

These data come from US9249131B2, “Modulators of ATP-binding cassette transporters” (Vertex Pharmaceuticals Incorporated, priority 2003, dated 2016).
